Key:
Type in all cases: in vivo
[1] = Prevention of reserpine-induced hypothermia in rats; details: for ED50: Rattus norvegicus, oral, dose column in mg/kg, read-out: ED50 (95% C.L.)
Description: Groups of 5 rats were treated orally with graded doses of the test compounds. One hour later the animals were treated with reserpine (solubilized in propylene glycol and citric acid) at a dose of 5 mg/kg intraperitoneally. Rectal temperatures were measured using a YSI Telethermometer. Temperatures were recorded just prior to treatment, one hour later just prior to reserpine administration and at hourly intervals following reserpine administration for 5 hours. […]

[2] = Enhancement of yohimbine lethality in mice; details: 25 mg/kg intraperitoneal, yohimbine 34 mg/kg
Description: The test compounds were administered intraperitoneally, at various dose levels, to groups of 10 mice. One hour later all mice received yohimbine at a dose (34 mg/kg) estimated to have a lethal effect in 4% of the mice. Deaths were recorded 18 to 24 hours later.

[3] = Inhibition of tetrabenazine induced depression of exploratory behavior in mice; details: for Number Responded/Number Treated: intraperitoneally or orally, 1 h before tetrabenazine 30 mg/kg; for ED50: Mus musculus, calculated by method of Finney, dose column in mg/kg, read-out: ED50 (95% C.L.)
Description: Varying doses of the test compounds are administered intraperitoneally or orally to 5 mice one hour before the administration of tetrabenazine hexamate at an intraperitoneal dose of 30 mg/kg which is known to depress markedly the exploratory behavior of normal mice. Thirty minutes later the mice are tested for their exploratoy behavior. Individual mice are placed in the center of a horizontal disc. Inhibition of the depression induced by tetrabenazine is considered present if the mice perform one or more of the following actions within 10 seconds after being placed on the disc:
(1) Animals move to the edge of the disc and pear over the side.
(2) Animals move 180° in place.
(3) Animals display a head movement of 90° immediately followed by a head movement in the opposite direction of at least 45°.
Administration of the test compounds to additional groups of 5 mice is repeated, the numbers of individual animals showing an anti-depressant response (normal exploratory behavior) is recorded and the results are analyzed by the following scheme (statistically standardized; significant P = less than 0.05).
The results from several dose levels (acceptance in at least two sequential test procedures) are then used to establish the Range of Active Doses.

[4] = 5 mg/kg oral, 2 hours after reserpine
[5] = 5 mg/kg oral, 3 hours after reserpine
[6] = 5 mg/kg oral, 4 hours after reserpine
[7] = 5 mg/kg oral, 5 hours after reserpine
[8] = 10 mg/kg oral, 2 hours after reserpine
[9] = 10 mg/kg oral, 3 hours after reserpine
[10] = 10 mg/kg oral, 4 hours after reserpine
[11] = 10 mg/kg oral, 5 hours after reserpine
[12] = 20 mg/kg oral, 2 hours after reserpine
[13] = 20 mg/kg oral, 3 hours after reserpine
[14] = 20 mg/kg oral, 4 hours after reserpine
[15] = 20 mg/kg oral, 5 hours after reserpine

SMILES	Percent of Animals Showing > Two Standard Deviations in Rectal Temperature Over Control Means [1, 4] [%]	Percent of Animals Showing > Two Standard Deviations in Rectal Temperature Over Control Means [1, 5] [%]	Percent of Animals Showing > Two Standard Deviations in Rectal Temperature Over Control Means [1, 6] [%]	Percent of Animals Showing > Two Standard Deviations in Rectal Temperature Over Control Means [1, 7] [%]	Percent of Animals Showing > Two Standard Deviations in Rectal Temperature Over Control Means [1, 8] [%]	Percent of Animals Showing > Two Standard Deviations in Rectal Temperature Over Control Means [1, 9] [%]	Percent of Animals Showing > Two Standard Deviations in Rectal Temperature Over Control Means [1, 10] [%]	Percent of Animals Showing > Two Standard Deviations in Rectal Temperature Over Control Means [1, 11] [%]	Percent of Animals Showing > Two Standard Deviations in Rectal Temperature Over Control Means [1, 12] [%]	Percent of Animals Showing > Two Standard Deviations in Rectal Temperature Over Control Means [1, 13] [%]	Percent of Animals Showing > Two Standard Deviations in Rectal Temperature Over Control Means [1, 14] [%]	Percent of Animals Showing > Two Standard Deviations in Rectal Temperature Over Control Means [1, 15] [%]	ED50 ([1]; 2 hours after reserpine) [mg/kg]	ED50 ([1]; 3 hours after reserpine) [mg/kg]	ED50 ([1]; 4 hours after reserpine) [mg/kg]	Number Responded/Number Treated ([3]; 3.13 mg/kg)	Number Responded/Number Treated ([3]; 6.25 mg/kg)	Number Responded/Number Treated ([3]; 12.5 mg/kg)	Number Responded/Number Treated ([3]; 25.0 mg/kg)	ED50 [3] [mg/kg]	other results
CCN1c2ccccc2N=C(N2CCN(C)CC2)c2cscc21 [4-Ethyl-10-(4-methyl-1-piperazinyl)-4H-thieno[3,4-b][1,5]benzodiazepine]	0	0	0	0	60	100	60	20	80	80	100	60	11.6	8.7	9.7	3/15	10/30	9/25	9/20	~37	ED50 ([1]; 5 hours after reserpine): 16.9 mg/kg; Number Dead/Number Treated ([2]; 18 hours): 7/10; Number Dead/Number Treated ([2]; 24 hours): 8/10
CCN1CCN(C2=Nc3ccccc3N(C)c3cscc32)CC1 [4-Methyl-10-(4-ethyl-1-piperazinyl)-4H-thieno[3,4-b][1,5]benzodiazepine]																3/15	10/30	12/25	10/25	~35	
CN1c2ccccc2N=C(N2CCN(CCO)CC2)c2cscc21 [4-(4-Methyl-4H-thieno[3,4-b][1,5]-benzodiazepin-10-yl)-1-piperazineethanol]	0	0	0	0	80	80	80	80	100	80	80	40	9.1	10.6	10.6	10/30	9/20	11/20	10/20	13	ED50 ([1]; 5 hours after reserpine): 14.6 mg/kg; Number Responded/Number Treated ([3]; 1.56 mg/kg): 5/30
